Reference: patent US20240116985A1, “STAPLED PEPTIDES AND METHODS THEREOF” (priority 2020, published 2024)
Read-outs that look alike come from different tables or passages of the source.

Key:
[1] = biological target: T1, beta-catenin/TCF4 engagement (Homo sapiens, UniProt P35222); assay: Nano-BRET target engagement assay (B-cat-Halo & TCF4-Luc in HEK293 cells); assay type: cell-based; settings: read-out: NanoBRET Abs IC50
T1 construct: expressed in transfected cells; host or cells: HEK293
T1 sequence (P35222 1-781): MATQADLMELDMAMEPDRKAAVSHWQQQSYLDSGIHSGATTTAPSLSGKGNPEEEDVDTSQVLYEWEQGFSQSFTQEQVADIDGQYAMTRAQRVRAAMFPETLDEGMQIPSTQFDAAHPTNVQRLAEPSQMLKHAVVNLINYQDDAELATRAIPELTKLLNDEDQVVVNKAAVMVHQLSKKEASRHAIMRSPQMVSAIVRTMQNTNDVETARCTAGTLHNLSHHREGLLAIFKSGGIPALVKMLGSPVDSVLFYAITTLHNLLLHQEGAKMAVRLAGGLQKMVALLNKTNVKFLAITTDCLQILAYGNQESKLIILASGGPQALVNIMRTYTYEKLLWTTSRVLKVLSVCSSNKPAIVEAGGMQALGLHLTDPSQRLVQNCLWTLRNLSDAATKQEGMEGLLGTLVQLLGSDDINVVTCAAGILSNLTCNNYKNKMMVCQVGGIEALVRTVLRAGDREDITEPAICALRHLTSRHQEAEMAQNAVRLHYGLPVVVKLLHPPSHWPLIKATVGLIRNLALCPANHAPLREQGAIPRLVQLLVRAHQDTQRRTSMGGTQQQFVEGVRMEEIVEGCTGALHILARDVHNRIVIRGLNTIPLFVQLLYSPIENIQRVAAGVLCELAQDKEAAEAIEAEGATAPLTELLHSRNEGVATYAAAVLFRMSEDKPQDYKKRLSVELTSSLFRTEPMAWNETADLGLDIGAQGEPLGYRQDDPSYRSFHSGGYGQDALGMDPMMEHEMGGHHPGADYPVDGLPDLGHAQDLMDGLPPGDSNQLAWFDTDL

[2] = biological target: T2, full-length beta-Catenin (Uniprot ID P35222) (Homo sapiens, UniProt P35222); assay: Fluorescence polarization IC50 (beta-catenin / 5FAM-TCF4 10-53 competition); assay type: binding; settings: fluorescence polarization
T2 construct: 10 nM full-length beta-Catenin (Uniprot ID P35222)
T2 sequence (P35222 1-781): T1 sequence (P35222 1-781)

Row | Compound | IC50 ([1]; absolute IC50) [µM] | IC50 ([2]; read-out: beta-Catenin FP IC50) [µM] | IC50 [1] [µM] | IC50 ([2]; beta-catenin, read-out: FP EC50) [µM]
1 | CC(=O)N1CCC[C@]12CC=CCCCC1(CCCC=CCCCOC(=O)N3CC[C@@](C(=O)N[C@@H](Cc4ccsc4)C(=O)N[C@@H](Cc4csc5ccccc45)C(=O)N[C@@H](C)C(N)=O)(C3)NC(=O)[C@H](CC(C)C)NC(=O)[C@H](Cc3ccc(F)cc3)NC(=O)[C@H](C)NC(=O)[C@H](C)NC(=O)[C@H](Cc3cccc(C(=O)O)c3)NC(=O)[C@H](CC(=O)O)NC1=O)NC(=O)[C@H](CC(C)(C)C)NC(=O)[C@H](CC(=O)O)NC2=O (stereo partly drawn) [I-2262, Ac-PL3-Asp-Npg-B5-Asp-3COOHF-Ala-Ala-4FF-Leu-PyrS2-3Thi-BztA-Ala-NH2] | 3.7 | 0.018 | – | –
2 | CC(=O)N1CCC[C@]12CC=CCCCC1(CCCC=CCCCOC(=O)N3CC[C@@](C(=O)N[C@@H](Cc4ccccc4C(F)(F)F)C(=O)N[C@@H](Cc4ccc5c(c4)CCC5)C(=O)N[C@@H](CO)C(N)=O)(C3)NC(=O)[C@H](CC(C)C)NC(=O)[C@H](Cc3ccccc3)NC(=O)[C@H](C)NC(=O)[C@H](C)NC(=O)[C@H](Cc3cccc(C(=O)O)c3)NC(=O)[C@H](CC(=O)O)NC1=O)NC(=O)[C@H](CC(C)(C)C)NC(=O)[C@H](CC(=O)O)NC2=O (stereo partly drawn) [I-2297, Ac-PL3-Asp-Npg-B5-Asp-3COOHF-Ala-Ala-Phe-Leu-PyrS2-2F3MeF-5IndA-Ser-NH2] | 5.5 | 0.068 | – | –
3 | CC(=O)N1CCC[C@]12CC=CCCCC1(CCCC=CCCCOC(=O)N3CC[C@@](C(=O)N[C@@H](Cc4ccccc4)C(=O)N[C@@H](Cc4csc5ccccc45)C(=O)N[C@@H](C)C(N)=O)(C3)NC(=O)[C@H](CC(N)=O)NC(=O)[C@H](Cc3ccccc3)NC(=O)[C@H](C)NC(=O)[C@H](CCC(N)=O)NC(=O)[C@H](CCC(N)=O)NC(=O)[C@H](CC(=O)O)NC1=O)NC(=O)[C@H](CC1CCCCC1)NC(=O)[C@H](CC(N)=O)NC2=O (stereo partly drawn) [I-2070, Ac-PL3-Asn-Cha-B5-Asp-Gln-Gln-Ala-Phe-Asn-PyrS2-Phe-BztA-Ala-NH2] | – | 0.19 | > 20 | –
4 | CC(=O)N1CCC[C@]12CC=CCCCC1(CCCC=CCCCOC(=O)N3CC[C@@](C(=O)N[C@@H](Cc4ccccc4Cl)C(=O)N[C@@H](Cc4csc5ccccc45)C(=O)N[C@@H](C)C(N)=O)(C3)NC(=O)[C@H](CC(N)=O)NC(=O)[C@H](Cc3ccccc3)NC(=O)[C@H](C)NC(=O)[C@H](C)NC(=O)[C@H](Cc3cccc(C(=O)O)c3)NC(=O)[C@H](CC(=O)O)NC1=O)NC(=O)[C@H](CC(C)(C)C)NC(=O)[C@H](CC(=O)O)NC2=O (stereo partly drawn) [I-2031, Ac-PL3-Asp-Npg-B5-Asp-3COOHF-Ala-Ala-Phe-Asn-PyrS2-2C1F-BztA-Ala-NH2] | – | 0.011 | 4.7 | –
5 | CC(=O)N1CCC[C@]12CC=CCCCC1(CCCC=CCCCOC(=O)N3CC[C@@](C(=O)N[C@@H](Cc4ccccc4Cl)C(=O)N[C@@H](Cc4csc5ccccc45)C(=O)N[C@@H](CO)C(N)=O)(C3)NC(=O)[C@H](C)NC(=O)[C@H](Cc3ccccc3)NC(=O)[C@H](C)NC(=O)[C@H](C)NC(=O)[C@H](Cc3cccc(C(=O)O)c3)NC(=O)[C@H](CC(=O)O)NC1=O)NC(=O)[C@H](CC(C)(C)C)NC(=O)[C@H](CC(=O)O)NC2=O (stereo partly drawn) [I-1849, Ac-PL3-Asp-Npg-B5-Asp-3COOHF-Ala-Ala-Phe-Ala-PyrS2-2C1F-BztA-Ser-NH2] | – | 0.019 | 8.8 | –
6 | CC(=O)N1CCC[C@]12CC=CCCCC1(CCCC=CCCCOC(=O)N3CC[C@@](C(=O)N[C@@H](Cc4ccsc4)C(=O)N[C@@H](Cc4csc5ccccc45)C(=O)N[C@@H](CC(=O)N(C)C)C(N)=O)(C3)NC(=O)[C@H](CC(N)=O)NC(=O)[C@H](Cc3ccccc3)NC(=O)[C@H](C)NC(=O)C(C)(C)NC(=O)[C@H]([C@@H](C)O)NC(=O)[C@H](CC(N)=O)NC1=O)NC(=O)[C@H](CC(C)(C)C)NC(=O)[C@H](CC(=O)O)NC2=O (stereo partly drawn) [I-2494, Ac-PL3-Asp-Npg-B5-Asn-Thr-Aib-Ala-Phe-Asn-PyrS2-3Thi-BztA-Me2Asn-NH2] | > 20 | 0.102 | – | –
7 | CC(=O)N1CCC[C@]12CC=CCCCC1(CCCC=CCCCOC(=O)N3CC[C@@](C(=O)N[C@@H](Cc4ccsc4)C(=O)N[C@@H](Cc4csc5ccccc45)C(=O)N[C@@H](CCC(N)=O)C(N)=O)(C3)NC(=O)[C@H](CC(N)=O)NC(=O)[C@H](Cc3ccccc3)NC(=O)[C@H](C)NC(=O)[C@H](C)NC(=O)[C@H](CN(C)CC(=O)O)NC(=O)[C@H](CC(=O)O)NC1=O)NC(=O)[C@H](CC(C)(C)C)NC(=O)[C@H](CC(=O)O)NC2=O (stereo partly drawn) [I-1637, Ac-PL3-Asp-Npg-B5-Asp-[Me]GA-Ala-Ala-Phe-Asn-PyrS2-3Thi-BztA-Gln-NH2] | > 20 | 0.011 | – | –
8 | CC(=O)NCCCC[C@@H]1NC(=O)[C@H](CCC(N)=O)NC(=O)[C@H](CC(=O)O)NC(=O)C2(CCCC=CCCCOC(=O)N3CC[C@@](C(=O)N[C@@H](Cc4ccccc4)C(=O)N[C@@H](Cc4csc5ccccc45)C(=O)N[C@@H](CC(=O)N4CCOCC4)C(N)=O)(C3)NC(=O)[C@H](CC(C)C)NC(=O)[C@H](Cc3ccccc3)NC(=O)[C@H](C)NC1=O)CCCC=CC[C@]1(CCCN1C(C)=O)C(=O)N[C@@H](CC(N)=O)C(=O)N[C@@H](CC1CCCCC1)C(=O)N2 (stereo partly drawn) [I-2522, Ac-PL3-Asn-Cha-B5-Asp-Gln-[Ac]Lys-Ala-Phe-Leu-PyrS2-Phe-BztA-MorphAsn-NH2] | > 20 | 0.219 | – | –
9 | CC(=O)N1CCC[C@]12CCCCC1(CCCCCCCOC(=O)N3CC[C@@](C(=O)N[C@@H](Cc4ccsc4)C(=O)N[C@@H](Cc4csc5ccccc45)C(=O)N[C@@H](CCC(N)=O)C(N)=O)(C3)NC(=O)[C@H](CC(C)C)NC(=O)[C@H](Cc3ccccc3)NC(=O)[C@H](C)NC(=O)[C@H](C)NC(=O)[C@H](CC(=O)O)NC(=O)[C@H](CC(=O)O)NC1=O)NC(=O)[C@H](CC(C)(C)C)NC(=O)[C@H](CC(=O)O)NC2=O (stereo partly drawn) [I-2161, Ac-PL3-Asp-Npg-B3-Asp-Asp-Ala-Ala-Phe-Leu-PyrS3-3Thi-BztA-Gln-NH2] | – | 0.855 | > 20 | –
10 | CC(=O)N1CCC[C@]12CC=CCCCC1(CCCC=CCCCOC(=O)N3CC[C@@](C(=O)N[C@@H](Cc4ccccc4Cl)C(=O)N[C@@H](Cc4csc5ccccc45)C(=O)N[C@@H](CCC(N)=O)C(N)=O)(C3)NC(=O)[C@H]([C@@H](C)O)NC(=O)[C@H](Cc3ccccc3)NC(=O)CNC(=O)[C@H](C)NC(=O)[C@H](CN(CC(=O)O)CC(F)(F)F)NC(=O)[C@H](CC(=O)O)NC1=O)NC(=O)[C@H](CC(C)(C)C)NC(=O)[C@H](CC(=O)O)NC2=O (stereo partly drawn) [I-1694, Ac-PL3-Asp-Npg-B5-Asp-TfeGA-Ala-Gly-Phe-Thr-PyrS2-2C1F-BztA-Gln-NH2] | 43.6 | 0.057 | – | –
11 | CC(=O)N1CCC[C@]12CC=CCCCC1(CCCC=CCCCOC(=O)N3CC[C@@](C(=O)N[C@@H](Cc4ccsc4)C(=O)N[C@@H](Cc4csc5ccccc45)C(=O)N[C@@H](CC(C)C)C(N)=O)(C3)NC(=O)[C@H](CC(C)C)NC(=O)[C@H](Cc3ccccc3)NC(=O)[C@H](C)NC(=O)[C@H](C)NC(=O)[C@H](CC(=O)O)NC(=O)[C@H](CC(=O)O)NC1=O)NC(=O)[C@H](CC(C)(C)C)NC(=O)[C@H](CC(=O)O)NC2=O (stereo partly drawn) [I-1409, Ac-PL3-Asp-Npg-B5-Asp-Asp-Ala-Ala-Phe-Leu-PyrS2-3Thi-BztA-Leu-NH2] | 24 | 0.074 | – | –
12 | CC(=O)N1CC2CC1C(=O)N[C@@H](CC(=O)O)C(=O)N[C@@H](CC(C)(C)C)C(=O)NC1(CCCCCCCCOC(=O)N3CC[C@@](C(=O)N[C@@H](Cc4ccsc4)C(=O)N[C@@H](Cc4csc5ccccc45)C(=O)N[C@@H](CCC(N)=O)C(N)=O)(C3)NC(=O)[C@H](CC(C)C)NC(=O)[C@H](Cc3ccccc3)NC(=O)[C@H](C)NC(=O)[C@H](C)NC(=O)[C@H](CN(CC(=O)O)CC(F)(F)F)NC(=O)[C@H](CC(=O)O)NC1=O)CCCCCCCC(=O)O2 (stereo partly drawn) [I-2265, Ac-HypEs5-Asp-Npg-B5-Asp-TfeGA-Ala-Ala-Phe-Leu-PyrS2-3Thi-BztA-Gln-NH2] | > 20 | 0.067 | – | –
13 | CC(=O)N1CCC[C@]12CC=CCCCC1(CCCC=CCCCOC(=O)N3CC[C@@](C(=O)N[C@@H](Cc4ccccc4Cl)C(=O)N[C@@H](Cc4csc5ccccc45)C(=O)N[C@@H](CO)C(N)=O)(C3)NC(=O)[C@H](CC(C)C)NC(=O)[C@H](Cc3ccccc3)NC(=O)[C@H](C)NC(=O)[C@H](C)NC(=O)[C@H](Cc3ccc(F)c(C(=O)O)c3)NC(=O)[C@H](CC(=O)O)NC1=O)NC(=O)[C@H](CC(C)(C)C)NC(=O)[C@H](CC(=O)O)NC2=O (stereo partly drawn) [I-2205, Ac-PL3-Asp-Npg-B5-Asp-4F3COOHF-Ala-Ala-Phe-Leu-PyrS2-2C1F-BztA-Ser-NH2] | – | 0.018 | 3.2 | –
14 | CC(=O)N1CCC[C@]12CC=CCCCC1(CCCC=CCCCOC(=O)N3CC[C@@](C(=O)N[C@@H](Cc4ccccc4Cl)C(=O)N[C@@H](Cc4csc5ccccc45)C(=O)N[C@@H](CC(C)C)C(N)=O)(C3)NC(=O)[C@H](CC(C)C)NC(=O)[C@H](Cc3ccccc3)NC(=O)[C@H](C)NC(=O)[C@H](C)NC(=O)[C@H](CC(=O)O)NC(=O)[C@H](CC(=O)O)NC1=O)NC(=O)[C@H](CC(C)C)NC(=O)[C@H](CC(=O)O)NC2=O (stereo partly drawn) [I-1418, Ac-PL3-Asp-Leu-B5-Asp-Asp-Ala-Ala-Phe-Leu-PyrS2-2C1F-BztA-Leu-NH2] | > 20 | 0.106 | – | 0.106
